How the values were obtained:
[1] = target: T1, Peptidyl-prolyl cis-trans isomerase FKBP4 (Homo sapiens) (UniProt Q02790); assay: Neurotrophic activity in chick dorsal root ganglion at 1 pM in presence of NGF after 48 hrs relative to control; format: functional, tissue-based; details: Gallus gallus, target entry is the homologue from another species
T1 sequence (whole entry): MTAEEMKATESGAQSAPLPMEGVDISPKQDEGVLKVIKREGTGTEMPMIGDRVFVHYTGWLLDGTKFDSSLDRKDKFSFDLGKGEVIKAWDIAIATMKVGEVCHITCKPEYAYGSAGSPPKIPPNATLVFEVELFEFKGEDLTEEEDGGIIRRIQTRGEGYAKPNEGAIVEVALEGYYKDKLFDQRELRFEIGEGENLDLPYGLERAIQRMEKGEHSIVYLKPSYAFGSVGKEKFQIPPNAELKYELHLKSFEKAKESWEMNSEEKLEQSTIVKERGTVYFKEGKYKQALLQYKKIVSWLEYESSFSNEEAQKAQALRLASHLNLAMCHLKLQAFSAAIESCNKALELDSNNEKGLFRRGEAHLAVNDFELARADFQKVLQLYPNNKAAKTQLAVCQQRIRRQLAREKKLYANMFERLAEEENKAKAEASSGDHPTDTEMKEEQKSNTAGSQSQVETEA

[2] = target: T1, Peptidyl-prolyl cis-trans isomerase FKBP4 (Homo sapiens); assay: Neurotrophic activity in chick dorsal root ganglion at 100 pM in presence of NGF after 48 hrs relative to control; format: functional, tissue-based; details: Gallus gallus, target entry is the homologue from another species

| Compound | Activity [1] | Activity [2] |
| --- | --- | --- |
| CCC(C)(C)C(=O)C(=O)N[C@H](C(=O)OCCCc1cccnc1)C(C)C | 100% | 120% |
| CCC(C)(C)C(=O)C(=O)N1CCC[C@H]1C(=O)OCCCc1cccnc1 | – | 120% |
| CC(C)[C@H](NC(=O)C(=O)C(C)(C)C)C(=O)OCCCC1CCCCC1 | 136% | 45% |
| CC(C)C[C@H](NC(=O)C(=O)C(C)(C)C)C(=O)OCCCC1CCCCC1 | 123% | 101% |
| CC(C)[C@H](NC(=O)C(=O)C(C)(C)C)C(=O)OCCCc1cccnc1 | 115% | 136% |
| CCC(C)(C)C(=O)C(=O)N[C@H](C(=O)OCCc1ccccc1C(F)(F)F)C(C)C | 123% | 207% |

Further lines, results first:

| Activity [1] | Activity [2] | Compound |
| --- | --- | --- |
| 65% | 78% | CC(C)[C@H](NC(=O)C(=O)C(C)(C)C)C(=O)OCCCc1ccccc1 |
| 108% | 93% | CC(C)C[C@H](NC(=O)C(=O)C(C)(C)C)C(=O)OCCCOc1ccccc1 |
| 73% | 92% | CC(C)C[C@H](NC(=O)C(=O)C(C)(C)C)C(=O)OCCCc1ccccc1 |
| 85% | 93% | CC(C)[C@H](NC(=O)C(=O)C(C)(C)C)C(=O)OCCCOc1ccccc1 |
| 39% | 117% | CCC(C)(C)C(=O)C(=O)N[C@H](C(=O)OCCCc1ccccc1)C(C)C |
| 129% | 65% | CC(C)C[C@H](NC(=O)C(=O)C(C)(C)C)C(=O)OCCCc1cccnc1 |
